Where two headings read alike, the source gives them in different places.
Columns and labels:
[1] = system: HeLa cervical adenocarcinoma; assay: Cell proliferation assay (14C-thymidine incorporation), HeLa; type: cell-based; details: Homo sapiens, read-out: Inhibition of cell proliferation IC50
Protocol: (§1) The ability of a test compound to inhibit the proliferation of cell growth was determined by measuring incorporation of ^14C-labelled thymidine into newly synthesized DNA within the cells. This method was used on cell lines derived from carcinomas originating from several tissues such as HeLa cervical adenocarcinoma (American Type Culture Collection (ATCC), Virginia, Cat. #CCL-2), A375 malignant melanoma (ATCC CRL-1619), SK-OV-3 ovarian adenocarcinoma (ATCC HTB-77) HCT-116 colon carcinoma (CCL-247) and PC-3 prostate adenocarcinoma (ATCC CRL-1435). The method was also used on primary cells such as HUVEC endothelial cells (ATCC CRL-1730). In this way the effect of a compound on cell growth of cells with many different phenotypes can be determined. Cells were trypsinized and counted and 3000-8000 cells were added to each well of a 96-well CytoStar tissue culture treated scintillating microplate (Amersham #RPNQ0160) in complete medium in a volume of 100 μl. Cells were incubated for 24 hours in complete medium at 37° C. in an atmosphere containing 5% CO2.
(§2) Next, 1 μl of test compound in 100% DMSO was added to the wells of the plate. DMSO only was added to control wells. Cells were incubated for 24 more hours in complete medium at 37° C. in an atmosphere containing 5% CO2. Methyl ^14C-thymidine 56 mCi/mmol (NEN #NEC568 or Amersham #CFA532) was diluted in complete medium and 0.2 μCi/well was added to each well of the CytoStar plate in a volume of 20 μl. The plate was incubated for 24 hours at 37° C. plus 5% CO2 in drug plus ^14C-thymidine. The contents of the plate were discarded into a ^14C radioactive waste container by inverting the plate and the plate was washed twice with 200 μl PBS. 200 μl of PBS is then added to each well. The top of the plate was sealed with a transparent plate sealer and a white plate backing sealer (Packard #6005199) was applied to the bottom of the plate. The degree of Methyl ^14C-thymidine incorporation was quantified on a Packard Top Count.

[2] = system: SK-OV-3 ovarian adenocarcinoma; assay: Cell proliferation assay (14C-thymidine incorporation), SK-OV-3; type: cell-based; details: Homo sapiens, read-out: Inhibition of cell proliferation IC50
Protocol: as §1, §2

[3] = system: PC-3 prostate adenocarcinoma; assay: Cell proliferation assay (14C-thymidine incorporation), PC-3; type: cell-based; details: Homo sapiens, read-out: Inhibition of cell proliferation IC50
Protocol: as §1, §2

[4] = target: T1, CDK1 (cyclin dependent kinase 1) / cyclin B (Homo sapiens, UniProt P06493); assay: CDK1 kinase assay; type: biochemical
T1 construct: purchased New England Biolabs 6020; host or cells: insect cells
Protocol: (§3) The term n.d. means not tested.
Assays to test compound inhibition of other kinases were preformed using methods that measure the amount of phosphorylation of a biotinylated peptide substrate. Biotinylated peptide substrates were selected from the literature as appropriate for the enzyme being evaluated. The general procedure used to assay for kinase activity is as follows: A kinase reaction mix was prepared in 50 mM Tris-HCl pH=8, 10 mM MgCl2, 0.1 mM NaVO4, 1 mM DTT, 5-10 μM ATP, 0.25-1 μM biotinylated peptide substrate, 0.2-0.8 μCuries per well ^33P-γ-ATP [2000-3000 Ci/mmol]. Assay conditions vary slightly for each protein kinase, for example, insulin receptor kinase requires 10 mM MnCl2 for activity and Calmodulin-dependent protein kinase requires calmodulin and 2 mM CaCl2. The reaction mixture was dispensed into the wells of a streptavidin coated Flashplate and 1 μl drug stock in 100% DMSO was added to a 100 μl reaction volume resulting in a final concentration of 1% DMSO in the reaction. Enzyme was diluted in 50 mM Tris-HCl pH=8.0, 0.1% BSA and added to each well. The reaction was incubated for one hour at 30° C. in the presence of compound. After one hour the reaction mix was aspirated from the plate and the plate was washed with PBS containing 100 mM EDTA. The plate was read on a scintillation counter to determine ^33P-γ-ATP incorporated into the immobilized peptide. […] A maximum and minimum signal for the assay was determined on each plate. The IC50 was calculated from the dose response curve of the percent inhibition of the maximum signal in the assay according to the formula [max signal−background/test compound signal−background (100)=% inhibition] by graphing the percent inhibition against the log concentration of test compound. Known inhibitor compounds appropriate for the kinase being assayed were also included on each plate.
VEGF-R (vascular endothelial growth factor receptor-2) is a fusion protein containing a polyhistidine tag at the N-terminus followed by amino acids 786-1343 of the rat VEGF-R2 kinase domain (GenBank Accession #U93306). CDK1 (cyclin dependent kinase 1) is isolated from insect cells expressing both the human CDK1 catalytic subunit and its positive regulatory subunit cyclin B (New England Biolabs, Beverly, Mass., Cat. #6020). CDK4 (cyclin dependent kinase 4) contains amino acids 769 to 921 of the mouse […] protein found in the GST-retinoblastoma protein construct (Santa Cruz Biotechnology, Santa Cruz, Calif.; Cat. #SC-4112). Insulin Receptor Kinase consists of residues 941-1313 of the cytoplasmic domain of the beta-subunit of the human insulin receptor (BIOMOL, Plymouth Meeting, Pa., Cat. #SE-195). Protein Kinase A is the catalytic subunit of cAMP dependent protein kinase-A purified from bovine heart (Upstate Biotech, Lake Placid, N.Y., Cat#14-114). PKC (protein kinase-C) is the gamma or beta isoform of the human protein produced in insect cells (BIOMOL, Plymouth Meeting, Pa., Cat. #SE-143). Casein Kinase 1 is a truncation at amino acid 318 of the C-terminal portion of the rat CK1 delta isoform produced in E.coli (New England Biolabs, Beverly, Mass., Cat. #6030). Casein Kinase 2 includes the alpha and beta subunits of the human CK2 protein produced in E.coli (New England Biolabs, Beverly, Mass., Cat. #6010). Calmodulin Kinase (calmodulin-dependent protein kinase 2) is a truncated version of the alpha subunit of the rat protein produced in insect cells (New England Biolabs, Beverly, Mass., Cat. #6060). Glycogen Synthase Kinase-3 is the beta isoform of the rabbit enzyme produced in E. coli (New England Biolabs, Beverly, Mass., Cat. #6040). MAP Kinase is the rat ERK-2 isoform containing a polyhistidine tag at the N-terminus produced in E. coli. and activated by phosphorylation with MEK1 prior to purification (BIOMOL, Plymouth Meeting, Pa., Cat. #SE-137). EGFR (epidermal growth factor receptor) is purified from human A431 cell membranes (Sigma, St. Louis, Mo., Cat.# E3641). […]

[5] = target: T2, VEGF-R (vascular endothelial growth factor receptor-2) (Rattus norvegicus, UniProt O08775); assay: VEGF-R screening assay (33P FlashPlate kinase assay); type: biochemical
T2 construct: polyhistidine (6xHis) (N)
Protocol: A kinase reaction mixture was prepared containing 50 mM Tris-HCl pH=8, 10 mM MgCl2, 0.1 mM NAPO4, 1 mM DTT, 10 μM ATP, 0.025 μM biotinylated peptide substrate and 0.8 μCuries per well ^33P-γ-ATP [2000-3000 Ci/mmol]. 70 μl of the kinase reaction mixture was dispensed into the well of a streptavidin coated FlashPlate™ (Cat. # SMP103, NEN, Boston, Mass.). Then 1 μl of test compound stock in 100% DMSO was added to the wells resulting in a final concentration of 1% DMSO in the reaction with a 100 μl final reaction volume. Next, soluble rat tyrosine kinase containing an N-terminal 6×HIS tag was diluted in 50 mM Tris-HCl pH=8.0, 0.1% BSA at a concentration of 5 ng per microliter and 30 μl (150 ng enzyme per test well) was added to each well to initiate the reaction. The reaction was incubated for one hour at 30° C. At the end of the 1-hour incubation, the reaction was terminated by aspirating the reaction mixture from the plate and washing the wells twice with PBS containing 100 mM EDTA. The PLCI biotinylated peptide substrate becomes immobilized on the Flashplate™ and the incorporation of ^33P-γ-ATP was measured by reading the plate on a scintillation counter. Inhibition of the enzymatic activity of the VEGF-R was measured by observing a reduced amount of ^33P-γ-ATP incorporated into the immobilized peptide.
as §3
(§4) Assays to test compound inhibition of other kinases were preformed using methods that measure the amount of phosphorylation of a biotinylated peptide substrate. Biotinylated peptide substrates were selected from the literature as appropriate for the enzyme being evaluated. The general procedure used to assay for kinase activity is as follows: A kinase reaction mix was prepared in 50 mM Tris-HCl pH=8, 10 mM MgCl2, 0.1 mM NaVO4, 1 mM DTT, 5-10 μM ATP, 0.25-1 μM biotinylated peptide substrate, 0.2-0.8 μCuries per well ^33P-γ-ATP [2000-3000 Ci/mmol]. Assay conditions vary slightly for each protein kinase, for example, insulin receptor kinase requires 10 mM MnCl2 for activity and Calmodulin-dependent protein kinase requires calmodulin and 2 mM CaCl2. The reaction mixture was dispensed into the wells of a streptavidin coated Flashplate and 1 μl drug stock in 100% DMSO was added to a 100 μl reaction volume resulting in a final concentration of 1% DMSO in the reaction. Enzyme was diluted in 50 mM Tris-HCl pH=8.0, 0.1% BSA and added to each well. The reaction was incubated for one hour at 30° C. in the presence of compound. After one hour the reaction mix was aspirated from the plate and the plate was washed with PBS containing 100 mM EDTA. The plate was read on a scintillation counter to determine ^33P-γ-ATP incorporated into the immobilized peptide. Test compounds were assayed in duplicate at 8 concentrations [100 tM, 10 μM, 1 μM, 100 nM, 10 nM, 1 nM, 100 μM, 10 μM]. A maximum and minimum signal for the assay was determined on each plate. The IC50 was calculated from the dose response curve of the percent inhibition of the maximum signal in the assay according to the formula [max signal−background/test compound signal−background (100)=% inhibition] by graphing the percent inhibition against the log concentration of test compound. Known inhibitor compounds appropriate for the kinase being assayed were also included on each plate.
VEGF-R (vascular endothelial growth factor receptor-2) is a fusion protein containing a polyhistidine tag at the N-terminus followed by amino acids 786-1343 of the rat VEGF-R2 kinase domain (GenBank Accession #U93306). CDK1 (cyclin dependent kinase 1) is isolated from insect cells expressing both the human CDK1 catalytic subunit and its positive regulatory subunit cyclin B (New England Biolabs, Beverly, Mass., Cat. #6020). CDK4 (cyclin dependent kinase 4) contains amino acids 769 to 921 of the mouse […] protein found in the GST-retinoblastoma protein construct (Santa Cruz Biotechnology, Santa Cruz, Calif.; Cat. #SC-4112). […]

FGF-R2 = FGF-R2 (Homo sapiens, UniProt P21802); assay: FGF-R2 kinase selectivity assay; type: biochemical; details: Table 4 kinase selectivity; read-out: IC50, Assay 15 FGF-R2
Protocol: as §4

HER2 = HER2 (Homo sapiens, UniProt P04626); assay: HER2 kinase selectivity assay; type: biochemical; details: Table 4 kinase selectivity; read-out: IC50, Assay 16 HER2
Protocol: as §4

HCT-116 colon carcinoma = assay: Cell proliferation assay (14C-thymidine incorporation), HCT-116; type: cell-based; details: Homo sapiens, read-out: Inhibition of cell proliferation IC50
Protocol: as §1, §2

MDA-MB-231 = assay: Cell proliferation assay (14C-thymidine incorporation), MDA-MB-231; type: cell-based; details: Homo sapiens, read-out: Inhibition of cell proliferation IC50
Protocol: as §1, §2

[6] = Table 4 kinase selectivity, 10 = approximate value, read-out: IC50, Assay 2 CDK1
[7] = Tables 1-3, >10 or >100 = no 50% inhibition at highest dose tested, read-out: CDK IC50
[8] = Table 4 kinase selectivity, read-out: IC50, Assay 1 VEGF-R
[9] = Tables 1-3, >10 or >100 = no 50% inhibition at highest dose tested, read-out: VEGF-R IC50

T1 sequence (P06493 whole entry): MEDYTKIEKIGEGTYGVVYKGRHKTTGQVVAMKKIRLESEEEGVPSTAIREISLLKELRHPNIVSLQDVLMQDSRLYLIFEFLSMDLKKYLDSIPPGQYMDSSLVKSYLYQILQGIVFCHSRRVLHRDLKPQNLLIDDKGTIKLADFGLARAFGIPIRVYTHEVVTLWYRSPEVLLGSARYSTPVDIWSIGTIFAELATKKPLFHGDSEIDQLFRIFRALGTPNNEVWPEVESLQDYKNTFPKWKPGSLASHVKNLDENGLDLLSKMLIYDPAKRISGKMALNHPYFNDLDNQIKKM
T1 sequence (P14635 whole entry partner): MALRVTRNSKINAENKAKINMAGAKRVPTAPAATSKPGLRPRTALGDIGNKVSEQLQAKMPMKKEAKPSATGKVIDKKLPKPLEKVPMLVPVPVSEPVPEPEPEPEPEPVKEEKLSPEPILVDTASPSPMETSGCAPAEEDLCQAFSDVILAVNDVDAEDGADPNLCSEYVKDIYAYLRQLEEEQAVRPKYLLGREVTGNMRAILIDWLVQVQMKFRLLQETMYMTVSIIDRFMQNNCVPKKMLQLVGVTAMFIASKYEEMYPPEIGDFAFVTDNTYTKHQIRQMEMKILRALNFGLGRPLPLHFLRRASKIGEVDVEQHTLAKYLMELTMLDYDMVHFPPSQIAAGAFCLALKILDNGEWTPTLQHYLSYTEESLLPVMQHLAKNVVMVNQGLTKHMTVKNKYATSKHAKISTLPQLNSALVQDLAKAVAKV
T2 sequence (O08775 786-1343): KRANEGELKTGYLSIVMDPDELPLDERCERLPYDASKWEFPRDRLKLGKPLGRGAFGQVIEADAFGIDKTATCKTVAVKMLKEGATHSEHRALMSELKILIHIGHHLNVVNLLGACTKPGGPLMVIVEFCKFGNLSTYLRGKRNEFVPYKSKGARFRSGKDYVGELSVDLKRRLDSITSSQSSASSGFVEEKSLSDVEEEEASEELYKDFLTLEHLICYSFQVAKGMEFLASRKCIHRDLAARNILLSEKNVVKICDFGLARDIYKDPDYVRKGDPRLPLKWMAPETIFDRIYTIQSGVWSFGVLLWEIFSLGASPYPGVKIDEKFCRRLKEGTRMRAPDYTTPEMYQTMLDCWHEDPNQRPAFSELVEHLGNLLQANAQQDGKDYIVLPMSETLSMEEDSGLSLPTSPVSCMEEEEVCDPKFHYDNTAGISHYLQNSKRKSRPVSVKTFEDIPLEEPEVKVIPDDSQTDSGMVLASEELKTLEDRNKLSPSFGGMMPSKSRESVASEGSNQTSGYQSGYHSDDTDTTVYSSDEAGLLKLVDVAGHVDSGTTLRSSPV
Chain of FGF-R2 (P21802 22-821, species assumed): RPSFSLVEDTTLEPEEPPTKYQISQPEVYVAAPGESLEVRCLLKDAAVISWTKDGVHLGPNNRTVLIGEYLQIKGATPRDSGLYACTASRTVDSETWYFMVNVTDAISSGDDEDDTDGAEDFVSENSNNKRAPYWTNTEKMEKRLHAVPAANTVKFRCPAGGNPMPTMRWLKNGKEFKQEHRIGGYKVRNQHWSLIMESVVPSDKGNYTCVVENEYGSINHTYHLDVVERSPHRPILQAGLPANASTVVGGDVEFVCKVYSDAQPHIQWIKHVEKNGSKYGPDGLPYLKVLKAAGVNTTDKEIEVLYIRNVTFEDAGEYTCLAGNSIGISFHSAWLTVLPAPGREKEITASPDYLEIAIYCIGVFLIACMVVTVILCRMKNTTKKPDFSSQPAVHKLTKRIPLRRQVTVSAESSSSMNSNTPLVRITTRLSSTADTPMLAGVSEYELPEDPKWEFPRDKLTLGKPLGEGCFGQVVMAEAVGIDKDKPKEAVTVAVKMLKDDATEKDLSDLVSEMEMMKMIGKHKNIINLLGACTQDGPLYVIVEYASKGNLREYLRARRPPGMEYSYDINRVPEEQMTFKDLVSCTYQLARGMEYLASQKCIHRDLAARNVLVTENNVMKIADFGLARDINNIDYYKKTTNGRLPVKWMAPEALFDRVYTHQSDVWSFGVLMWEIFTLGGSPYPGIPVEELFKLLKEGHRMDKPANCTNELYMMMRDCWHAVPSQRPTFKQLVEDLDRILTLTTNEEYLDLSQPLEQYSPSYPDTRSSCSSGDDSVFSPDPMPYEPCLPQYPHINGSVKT
Chain of HER2 (P04626 23-1255, species assumed): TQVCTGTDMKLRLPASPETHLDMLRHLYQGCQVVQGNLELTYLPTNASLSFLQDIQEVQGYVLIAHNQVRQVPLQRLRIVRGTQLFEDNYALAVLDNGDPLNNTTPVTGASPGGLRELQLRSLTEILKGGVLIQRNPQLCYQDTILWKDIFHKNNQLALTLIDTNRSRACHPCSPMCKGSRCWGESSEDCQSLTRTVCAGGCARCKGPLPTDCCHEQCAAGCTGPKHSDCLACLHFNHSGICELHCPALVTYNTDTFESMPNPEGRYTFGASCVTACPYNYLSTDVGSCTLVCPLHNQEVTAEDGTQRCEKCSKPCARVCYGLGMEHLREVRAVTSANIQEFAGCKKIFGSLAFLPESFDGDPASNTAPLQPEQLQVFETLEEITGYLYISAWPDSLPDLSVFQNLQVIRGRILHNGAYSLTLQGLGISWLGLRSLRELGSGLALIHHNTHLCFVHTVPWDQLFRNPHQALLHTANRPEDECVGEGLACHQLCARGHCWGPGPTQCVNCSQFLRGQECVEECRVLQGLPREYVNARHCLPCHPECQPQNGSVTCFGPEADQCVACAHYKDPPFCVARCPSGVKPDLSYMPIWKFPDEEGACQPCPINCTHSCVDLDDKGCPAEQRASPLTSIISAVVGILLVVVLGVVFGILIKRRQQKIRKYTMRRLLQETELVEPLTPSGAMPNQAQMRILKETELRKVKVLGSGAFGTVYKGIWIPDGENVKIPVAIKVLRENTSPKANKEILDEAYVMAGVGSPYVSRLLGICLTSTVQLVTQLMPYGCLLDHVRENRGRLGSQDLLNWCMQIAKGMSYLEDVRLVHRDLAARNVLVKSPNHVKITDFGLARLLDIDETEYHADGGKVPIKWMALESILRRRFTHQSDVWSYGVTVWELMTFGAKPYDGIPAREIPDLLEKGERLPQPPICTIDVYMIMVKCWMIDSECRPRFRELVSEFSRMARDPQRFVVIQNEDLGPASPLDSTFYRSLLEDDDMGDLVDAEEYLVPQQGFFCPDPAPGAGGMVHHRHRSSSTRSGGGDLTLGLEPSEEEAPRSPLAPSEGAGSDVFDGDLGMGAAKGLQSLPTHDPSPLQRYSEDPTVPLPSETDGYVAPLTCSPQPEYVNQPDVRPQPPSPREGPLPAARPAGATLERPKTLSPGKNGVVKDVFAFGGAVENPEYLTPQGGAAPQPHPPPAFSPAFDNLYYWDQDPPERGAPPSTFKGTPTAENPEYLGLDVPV

IC50 [1] [nM]	IC50 [4, 7] [nM]	IC50 [5, 9] [nM]	Compound	also measured
4940			Clc1cccc(Nc2cncc(-c3cncc(NCCCn4cncn4)c3)n2)c1 [Cmd 76, N-(3-chlorophenyl)-6-[5-[[3-(1H-1,2,4-triazol-1-yl)propyl]amino]-3-pyridinyl]-2-pyrazinamine]	IC50 [2]: 12900 nM
12500			Clc1cccc(Nc2cncc(-c3cncc(NCCCn4cccn4)c3)n2)c1 [Cmd 75, N-(3-chlorophenyl)-6-[5-[[3-(1H-pyrazol-1-yl)propyl]amino]-3-pyridinyl]-2-pyrazinamine]	IC50 [3]: 5340 nM; IC50 [2]: > 10000 nM
	> 10000	30	Clc1cccc(Nc2cncc(-c3cncc(NCCCn4ccnc4)c3)n2)c1 [Cmd 77]	IC50 [4, 6]: ~10000 nM; IC50 [5, 8]: 30 nM; IC50 (FGF-R2): 221 nM; IC50 (HER2): 966 nM
5700			Clc1cccc(Nc2cncc(-c3cncc(NCCCc4cccnc4)c3)n2)c1 [Cmd 72, N-(3-chlorophenyl)-6-[5-[[3-(3-pyridinyl)propyl]amino]-3-pyridinyl]-2-pyrazinamine]	IC50 [3]: 2580 nM; IC50 (HCT-116 colon carcinoma): 4970 nM; IC50 (MDA-MB-231): 2570 nM
3800			Clc1cccc(Nc2cncc(-c3cncc(NCCCc4ccncc4)c3)n2)c1 [Cmd 71, N-(3-chlorophenyl)-6-[5-[[3-(4-pyridinyl)propyl]amino]-3-pyridinyl]-2-pyrazinamine]	IC50 [3]: 3200 nM; IC50 (HCT-116 colon carcinoma): 3290 nM; IC50 (MDA-MB-231): 1880 nM
	34400	1050	OCCCNc1cncc(-c2cncc(NCc3ccccc3)n2)c1 [Cmd 62]	
	2030	125	CCOC(=O)CCCNc1cncc(-c2cncc(Nc3cccc(Cl)c3)n2)c1 [Cmd 84]	IC50 [4, 6]: 2030 nM; IC50 [5, 8]: 125 nM
	> 10000	930	CCOCC(=O)Nc1cncc(-c2cncc(Nc3cccc(Cl)c3)n2)c1 [Cmd 102]	
	> 10000	990	COCCOCC(=O)Nc1cncc(-c2cncc(Nc3cccc(Cl)c3)n2)c1 [Cmd 98]	
	> 10000	268	Clc1ccc(Nc2cncc(-c3cncc(NCCCc4ccncc4)c3)n2)cc1Cl [Cmd 89]	
	~10000	150	OCCNc1cncc(-c2cncc(Nc3cccc(Cl)c3)n2)c1 [Cmd 31]	
	> 10000	> 10000	O=C(CCCOc1ccccc1)Nc1cncc(-c2cncc(Nc3cccc(Cl)c3)n2)c1 [Cmd 100]	

Source: patent publication US6710048B2, “Pyrazine derivatives as modulators of tyrosine kinases” (Ortho-McNeil Pharmaceutical, Inc., priority 2000, dated 2004)
